Assay results as given in US20160220567A1, “COMPOSITION FOR TREATING OR PREVENTING BONE DISEASES, COMPRISING HALOFUGINONE AS ACTIVE INGREDIENT” (THE CATHOLIC UNIVERSITY OF KOREA INDUSTRY-ACADEMIC …, priority 2013, published 2016).

What was measured:
[1] = system: bone marrow cells differentiating into osteoclasts; test: TRAP staining of bone marrow cells from arthritis animal model cultured with M-CSF and RANKL; assay type: in vivo, mouse; settings: bone marrow cells from treated CIA mice, cultured with M-CSF and RANKL for 7 days, FIG. 4B
Experimental: (§1) For the construction of a mouse model with collagen-induced arthritis (hereinafter, referred to as “CIA”), a 6-week old male DBA/1J mouse was subjected to primary immunization by intradermal injection after mixing the bovine type II collagen (hereinafter, referred to as “CII”) and complete Freud's adjuvant (CFA) in an amount of 100 μL, respectively. After a week thereafter, halofuginone was injected intraperitoneally at 3 day intervals at a concentration of 100 μg/kg and 500 μg/kg, respectively (9 weeks).
(§2) Accordingly, the present inventors isolated bone marrow cells from the joint of the animal model with arthritis, cultured the cells under the stimulation of M-CSF and RANKL for 7 days, and subjected them to TRAP staining using the leukocyte acid phosphatase Kit (387-A, Sigma, St. Louis, Mo., USA) according to the manufacturer's manual.

[2] = system: mononuclear cells of human peripheral blood; test: Differentiation of osteoclasts in mononuclear cells of human peripheral blood: TRAP staining and real-time PCR; assay type: cell-based; settings: M-CSF, RANKL, 9 days
Experimental: The mononuclear cells of human peripheral blood were cultured for 9 days after stimulating with M-CSF, RANKL, and halofuginone. Then, the cells were stained by TRAP according to the manufacturer's manual, and the amount of mRNA of TRAP, NFATc1, calcitonin receptor (CTR), cathepsin K, MMP9, and RANK were confirmed by real-time PCR.

[3] = system: ERK of Th17 cells; test: pERK expression in Th17 cells by western blotting; assay type: cell-based, mouse; settings: Th17 cells stimulated with halofuginone, FIG. 3C
Experimental: To examine whether halofuginone activates the ERK of Th17 cells, western blotting was performed for pERK in the cells under the condition of Example <2-1>. To this end, the Th17 cells were lysed in a lysis buffer [20 mM Tris-HCl (pH 7.5), 150 mM NaCl, 1% Triton X-100, 1 mM EDTA, 1 mM EGTA, 1 mM phenylmethylsulfonyl fluoride, 10 mM β-glycerophosphate, 1 mM NaF, 1 mM Na3VO4, and 19 Protease Inhibitow Cocktail™ (Roche Molecular Biochemicals, Indianapolis, Ind., USA)]. From the lysate, an equal amount of the protein (about 20 μg) was separated by sodium dodecyl sulfate-polyacrylamide gel electrophoresis and then transferred to a nitrocellulose membrane. Then, the blots were probed with NFATc1 and phospho-Smad2/3 (all from Santa Cruz Biotechnology), Stat3, Stat5, ERK, phospho-Stat3, phospho-stat5, and phospho-ERK (all from Cell Signaling Technology), and β-actin (Sigma) antibodies, and confirmed by ECL (Amersham, Del., USA).

[4] = system: IL-17 and Foxp3 genes; test: Expression of IL-17 and Foxp3 genes in splenocytes and draining lymph nodes by RT-PCR; assay type: in vivo, mouse; settings: mRNA, splenocytes and draining lymph nodes of CIA mice, FIG. 2C
Experimental: as §1
To examine the effect of halofuginone treatment in an animal model, the RNA in the splenocytes and draining lymph nodes were extracted using the Trizol reagent, and the expression of IL-17and Foxp3 genes was confirmed by RT-PCR.
The real-time PCR was performed using the LightCycler 2.0 System Instrument and the reaction compounds were prepared by mixing 1 μL of each cDNA, 10 μL of premix Ex Taq as an enzyme for the initiation, and each primer pair to a final volume of 20 μL using distilled water. […] The values of cycle threshold (Ct) were analyzed and the amount of mRNA expression for each target was indicated in terms of the amount of beta-actin mRNA expression and the relative quantity. […]

[5] = system: TRAP, NFATc1, b3 integrin, OSCAR, cathepsin K, and MMP9 mRNA; test: Real-time PCR of factors associated with osteoclast differentiation in bone marrow cells of arthritis animal model; assay type: in vivo, mouse; settings: bone marrow cells of CIA mice, RANKL treatment, FIG. 4C
Experimental: as §1
The real-time PCR was performed using the LightCycler 2.0 System Instrument and the reaction compounds were prepared by mixing 1 μL of each cDNA, 10 μL of premix Ex Taq as an enzyme for the initiation, and each primer pair to a final volume of 20 μL using distilled water. The reaction conditions were: reacted at 95° C. for 10 minutes, followed by a total of 50 cycles consisting of denaturation at 95° C. for 10 seconds, annealing at 60° C. for 5 seconds, and extension at 72° C. for 10 seconds. The values of cycle threshold (Ct) were analyzed and the amount of mRNA expression for each target was indicated in terms of the amount of beta-actin mRNA expression and the relative quantity. The primers used are shown below.
as §2
The primers used are shown below.

[6] = system: CD4 T cells isolated from human peripheral blood; test: Expression of IL-17 and Foxp3 by flow cytometer in human T cells; assay type: cell-based; settings: condition of differentiating Th17 cells, flow cytometry, FIG. 6A
Experimental: The CD4 T cells isolated from human peripheral blood were treated with halofuginone under the condition of differentiating Th17 cells (anti-CD3 (0.5 μg/mL), anti-CD28 (0.5 μg/mL), anti-IFN-γ (10 μg/mL), anti-IL-4 (10 μg/mL), IL-6 (20 ng/mL), and IL-1β (10 ng/mL)) and cultured. Then, the cells were collected, washed with the FACs buffer for flow cytometry analysis, subjected to blocking at 4° C. for the inhibition of non-specific binding for 15 minutes, added with CD4 and CD25 (i.e., cell surface markers) along with anti-CD4-PerCP and anti-CD25-APC and reacted at 4° C. for 30 minutes, and washed with a perm wash buffer. After performing the Cytofix/cytoperm process at 4° C. for 20 minutes, the resultant was washed with the perm wash buffer. Anti Foxp3-FITC and anti IL-17 PE were added thereto, reacted at 4° C. for 30 minutes, and washed with the perm wash buffer. Upon completion of staining, the cells were analyzed using the fluorescentactivated cell sorter (FACs) regarding the expression levels of IL-17 cytokines and Foxp3 according to the halofuginone treatment.

[7] = dose-dependent, FIGS. 6B and 6C

SMILES: O=C(C[C@H]1NCCC[C@@H]1O)Cn1cnc2cc(Br)c(Cl)cc2c1=O (racemic) [halofuginone]
- number of TRAP positive cells [1]: decreased
- differentiation of osteoclasts [2]: effectively inhibit
- mRNA expression of MMP9 [2, 7]: decreased
- mRNA expression of NFATc1 [2, 7]: decreased
- mRNA expression of RANK [2, 7]: decreased
- mRNA expression of TRAP [2, 7]: decreased
- mRNA expression of calcitonin receptor(CTR) [2, 7]: decreased
- mRNA expression of cathepsin K [2, 7]: decreased
- expression of pERK [3]: increased
- expression of Foxp3 [4]: increased
- expression of IL-17 [4]: decreased
- mRNA expression level of MMP9 [5]: decreased
- mRNA expression level of NFATc1 [5]: decreased
- mRNA expression level of OSCAR [5]: decreased
- mRNA expression level of TRAP [5]: decreased
- mRNA expression level of b3 integrin [5]: decreased
- mRNA expression level of cathepsin K [5]: decreased
- number of Th17 cells [6]: reduces
- number of Treg cells [6]: increasing
